Results from publication PMC7961048, “Hierarchized phosphotarget binding by the seven human 14-3-3 isoforms” (Nature Communications, 2021).
Like-named read-outs stand apart in the source and are kept apart here. Starred links: 1 amine or outer side, 2 acyl side, 3 side chain; linkers in the order of their positions; H or OH if unused. Non-standard residues stand in square brackets, D forms with d. Residues, ends and D or L forms follow the SMILES beside them. *: point of attachment. X1 = O=C(CCCC[C@@H]1SC[C@@H]2NC(=O)N[C@@H]21)NCCCOCCOCCOCCCN*; pT = C[C@@H](OP(=O)(O)O)[C@H](N)C(=O)O; Suc = O=C(CCC(=O)[*:2])[*:1]

Experiments:
14-3-3β = target: T1, 14-3-3β (Homo sapiens, UniProt P31946); assay: biochemical; format: binding
T1 construct: cDNAs encoding other full-length 14-3-3 isoforms β, τ, η, and σ were obtained as codon-optimized; made in house; host or cells: E. coli BL21(DE3)
T1 sequence (P31946 1-246): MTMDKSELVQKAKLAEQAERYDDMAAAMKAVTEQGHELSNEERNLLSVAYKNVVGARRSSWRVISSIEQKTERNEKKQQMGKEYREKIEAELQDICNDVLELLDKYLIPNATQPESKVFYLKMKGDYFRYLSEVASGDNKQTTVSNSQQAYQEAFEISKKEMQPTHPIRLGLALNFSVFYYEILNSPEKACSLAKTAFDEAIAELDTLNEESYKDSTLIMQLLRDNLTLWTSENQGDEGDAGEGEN
Protocol: (§1) The seven full-length human 14-3-3 isoforms, produced as fusions to a maltose-binding protein (MBP), were analyzed for their interaction with four phospho-PBMs from E6 proteins of HPV types 16, 18, 33, and 35 belonging to subgroups 1 and 2 (as defined in Supplementary Fig. 1). For comparison, we also measured two non-viral phospho-PBMs originating from protein kinase RSK1[28]. We used a competitive fluorescence polarization (FP) assay that measures the displacement of a fluorescent tracer phosphopeptide (here, derived from the HSPB6 protein) bound beforehand to 14-3-3, by an increasing amount of the peptide of interest.
(§2) For affinity measurements, full-length human 14-3-3 constructs with an N-terminal MBP fusion were used. Plasmids containing the cDNAs of the full-length 14-3-3 isoforms ε, γ, and ζ were received from Prof. Lawrence Banks. cDNAs encoding other full-length 14-3-3 isoforms β, τ, η, and σ were obtained as codon-optimized for E. coli expression synthetic genes from IDT Technologies (Coralville, Iowa, USA). All 14-3-3 isoforms were fused via a three-alanine linker to the C terminus of a mutant MBP carrying the following amino acid substitutions facilitating crystallization: D83A, K84A, K240A, E360A, K363A, and D364A[62]. All resulting clones were verified by sequencing. The MBP-fused proteins were expressed in E. coli BL21(DE3) with IPTG induction. Proteins were affinity purified on an amylose column and were further purified by ion-exchange chromatography (HiTrap Q HP, GE Healthcare). Unfused 14-3-3 isoforms devoid of the flexible C-terminal tails (14-3-3βΔC, 14-3-3τΔC 14-3-3εΔC) were expressed using IPTG induction and purified by subtractive IMAC and SEC[40]. Protein concentrations were determined by UV spectroscopy. The samples were supplemented with glycerol and TCEP before aliquoting and freezing in liquid nitrogen.
(§3) Unless otherwise stated, all phosphopeptide-binding measurements were performed using full-length 14-3-3 proteins fused to the C terminus of MBP, favoring optimal solubility and a standardized parallel purification scheme.
(§4) FP was measured with a PHERAstar (BMG Labtech, Offenburg, Germany) microplate reader by using 485 ± 20 and 528 ± 20 nm band-pass filters (for excitation and emission, respectively). In direct FP measurements, a dilution series of the 14-3-3 protein was prepared in 96-well plates (96-well skirted PCR plate, 4ti-0740, 4titude, Wotton, UK) in a 20 mM HEPES pH 7.5 buffer containing 150 mM NaCl, 0.5 mM TCEP, 0.01% Tween 20, 50 nM fluorescently labeled fpB6 peptide, and 100 μM FSC, if indicated. The volume of the dilution series was 40 μl, which was later divided into three technical replicates of 10 μl upon transferring to 384-well micro-plates (low binding microplate, 384 well, E18063G5, Greiner Bio-One, Kremsmünster, Austria). In total, polarization of the probe was measured at eight different protein concentrations (whereas one contained no protein and corresponded to the free peptide). In competitive FP measurements, the same buffer was supplemented with the protein to achieve a complex formation of 60–80%, based on the direct titration. Then, this mixture was used for creating a dilution series of the unlabeled competitor (i.e., the studied peptides) and the measurement was carried out identically as in the direct experiment.
(§5) All FP experiments were done in triplicates. Analysis of FP experiments were carried out using ProFit, an in-house developed, Python-based fitting program. ProFit utilizes a Monte Carlo approach to take into account experimental variability. It generates hundreds of simulated datasets, based on the experimental data variance and fits direct and competitive measurements in pairs.

14-3-3γ = target: T2, 14-3-3γ (Homo sapiens, UniProt P61981); assay: biochemical; format: binding
T2 construct: full-length human 14-3-3 constructs with an N-terminal MBP fusion were used; made in house; host or cells: E. coli BL21(DE3)
T2 sequence (P61981 1-247): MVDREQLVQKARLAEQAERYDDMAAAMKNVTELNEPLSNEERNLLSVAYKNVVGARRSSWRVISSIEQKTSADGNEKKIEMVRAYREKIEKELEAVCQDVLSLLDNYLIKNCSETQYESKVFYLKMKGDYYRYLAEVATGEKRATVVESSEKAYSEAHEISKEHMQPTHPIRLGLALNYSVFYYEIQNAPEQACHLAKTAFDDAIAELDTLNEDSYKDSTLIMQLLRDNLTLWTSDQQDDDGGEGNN
Protocol: as §1, §2, §3, §4, §5

14-3-3ε = target: T3, 14-3-3ε (Homo sapiens, UniProt P62258); assay: biochemical; format: binding
T3 construct: Plasmids containing the cDNAs of the full-length 14-3-3 isoforms ε, γ, and ζ were received; made in house; host or cells: E. coli BL21(DE3)
T3 sequence (P62258 1-255): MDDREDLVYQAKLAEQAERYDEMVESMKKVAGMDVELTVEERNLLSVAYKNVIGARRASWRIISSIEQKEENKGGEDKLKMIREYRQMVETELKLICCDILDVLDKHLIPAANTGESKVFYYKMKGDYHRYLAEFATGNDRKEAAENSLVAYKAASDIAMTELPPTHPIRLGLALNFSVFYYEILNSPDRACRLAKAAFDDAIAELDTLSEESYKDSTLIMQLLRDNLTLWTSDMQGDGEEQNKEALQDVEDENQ
Protocol: as §1, §2, §3, §4, §5

14-3-3ζ = target: T4, 14-3-3ζ (Homo sapiens, UniProt P63104); assay: biochemical; format: binding
T4 construct: Plasmids containing the cDNAs of the full-length 14-3-3 isoforms ε, γ, and ζ were received; made in house; host or cells: E. coli BL21(DE3)
T4 sequence (P63104 1-245): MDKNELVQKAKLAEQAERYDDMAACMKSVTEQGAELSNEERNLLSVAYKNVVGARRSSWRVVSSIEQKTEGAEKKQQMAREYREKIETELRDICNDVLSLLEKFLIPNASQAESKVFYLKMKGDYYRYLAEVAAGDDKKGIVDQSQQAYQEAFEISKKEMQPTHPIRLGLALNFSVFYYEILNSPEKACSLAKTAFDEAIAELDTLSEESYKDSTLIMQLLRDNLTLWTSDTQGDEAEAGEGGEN
Protocol: as §1, §2, §3, §4, §5

14-3-3η = target: T5, 14-3-3η (Homo sapiens, UniProt Q04917); assay: biochemical; format: binding
T5 construct: cDNAs encoding other full-length 14-3-3 isoforms β, τ, η, and σ were obtained as codon-optimized; made in house; host or cells: E. coli BL21(DE3)
T5 sequence (Q04917 1-246): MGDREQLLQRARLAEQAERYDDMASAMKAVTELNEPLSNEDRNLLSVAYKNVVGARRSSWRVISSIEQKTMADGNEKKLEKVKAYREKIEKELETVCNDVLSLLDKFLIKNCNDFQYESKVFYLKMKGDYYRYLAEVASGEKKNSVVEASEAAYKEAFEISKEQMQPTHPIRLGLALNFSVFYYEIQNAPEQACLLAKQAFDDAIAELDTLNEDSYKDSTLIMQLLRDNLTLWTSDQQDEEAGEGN
Protocol: as §1, §2, §3, §4, §5

14-3-3σ = target: T6, 14-3-3σ (Homo sapiens, UniProt P31947); assay: biochemical; format: binding
T6 construct: cDNAs encoding other full-length 14-3-3 isoforms β, τ, η, and σ were obtained as codon-optimized; made in house; host or cells: E. coli BL21(DE3)
T6 sequence (P31947 1-248): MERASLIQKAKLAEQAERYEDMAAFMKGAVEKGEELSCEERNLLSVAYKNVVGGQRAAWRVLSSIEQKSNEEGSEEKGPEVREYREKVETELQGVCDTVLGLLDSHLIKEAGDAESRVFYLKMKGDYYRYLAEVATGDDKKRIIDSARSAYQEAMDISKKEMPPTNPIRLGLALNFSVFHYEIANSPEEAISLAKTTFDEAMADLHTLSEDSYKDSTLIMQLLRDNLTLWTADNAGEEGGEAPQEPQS
Protocol: as §1, §2, §3, §4, §5

14-3-3τ = target: T7, 14-3-3τ (Homo sapiens, UniProt P27348); assay: biochemical; format: binding
T7 construct: cDNAs encoding other full-length 14-3-3 isoforms β, τ, η, and σ were obtained as codon-optimized; made in house; host or cells: E. coli BL21(DE3)
T7 sequence (P27348 1-245): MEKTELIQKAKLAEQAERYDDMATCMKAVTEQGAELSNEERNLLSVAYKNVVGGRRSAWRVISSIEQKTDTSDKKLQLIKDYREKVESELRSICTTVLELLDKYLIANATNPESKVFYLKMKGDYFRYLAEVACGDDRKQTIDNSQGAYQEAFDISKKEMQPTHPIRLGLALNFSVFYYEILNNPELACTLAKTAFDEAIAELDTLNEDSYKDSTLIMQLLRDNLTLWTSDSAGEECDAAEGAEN
Protocol: as §1, §2, §3, §4, §5

14-3-3 isoforms = details: Figure 4 panel a, literature-curated motifs, unit from the colour scale line, cited from earlier work

For `CC(C)[C@H](NC(=O)[C@H](C)NC(=O)[C@@H](NC(=O)[C@H](CCC(=O)O)NC(=O)[C@H](CCCNC(=N)N)NC(=O)[C@H](CCCNC(=N)N)NC(=O)[C@H](CCCNC(=N)N)NC(=O)[C@@H]1CCCN1C(=O)[C@H](CCCCN)NC(=O)[C@H](CO)NC(=O)CCC(=O)NCCCOCCOCCOCCCNC(=O)CCCC[C@@H]1SC[C@@H]2NC(=O)N[C@@H]21)[C@@H](C)OP(=O)(O)O)C(=O)O` [pHPV35E6T-6R, E-1A] ({X1-Suc}-SKPRRRE[pT]AV-OH), the Kd (14-3-3β) was 7.1 ± 0.5 µM, the Kd (14-3-3γ) was 3.3 ± 0.2 µM and the Kd (14-3-3ε) was 13 ± 2 µM. The Kd (14-3-3ζ) was 7.3 ± 0.4 µM, the Kd (14-3-3η) was 4.8 ± 0.5 µM and the Kd (14-3-3σ) was 18.9 ± 1.9 µM. The Kd (14-3-3τ) was 5.8 ± 0.4 µM.
In the case of “C-Raf254-264 (RQRSTSTPNVH; UniProt P04049 254-264, looked up, fragment)”, the Kd (14-3-3 isoforms; 14-3-3β, read-out: Binding affinities (KD) of various 14-3-3-binding motifs, 14-3-3β) is listed as 9.5 µM, the Kd (14-3-3 isoforms; 14-3-3γ, read-out: Binding affinities (KD) of various 14-3-3-binding motifs, 14-3-3γ) is listed as 3.7 µM and the Kd (14-3-3 isoforms; 14-3-3ε, read-out: Binding affinities (KD) of various 14-3-3-binding motifs, 14-3-3ε) is listed as 15.1 µM. For the same compound, the Kd (14-3-3 isoforms; 14-3-3ζ, read-out: Binding affinities (KD) of various 14-3-3-binding motifs, 14-3-3ζ) was 16.6 µM, the Kd (14-3-3 isoforms; 14-3-3η, read-out: Binding affinities (KD) of various 14-3-3-binding motifs, 14-3-3η) was 6.3 µM and the Kd (14-3-3 isoforms; 14-3-3σ, read-out: Binding affinities (KD) of various 14-3-3-binding motifs, 14-3-3σ) was 67.1 µM. The Kd (14-3-3 isoforms; 14-3-3τ, read-out: Binding affinities (KD) of various 14-3-3-binding motifs, 14-3-3τ) was 26.6 µM.
